Legend:
[1] = wn = mass fraction of the nth substance listed; details: 101 kPa, Liquid
[2] = mn = molality of the nth substance listed, in mol/kg; details: 101 kPa, Liquid
[3] = 101 kPa, Liquid

CCO [ethanol] + O
[1]
Details | mass density, w2 = 0.15 [kg/m3] | mass density, w2 = 0.2 [kg/m3] | mass density, w2 = 0.25 [kg/m3] | viscosity, w2 = 0.15 [mPa·s] | viscosity, w2 = 0.2 [mPa·s] | viscosity, w2 = 0.25 [mPa·s]
303.15 K | 822.7 | 836 | 848.8 | 1.383 | 1.511 | 1.611
308.15 K | 818.4 | 831.8 | 843 | 1.222 | 1.332 | 1.402
313.15 K | 813.1 | 827.1 | 838.2 | 1.085 | 1.174 | 1.229
318.15 K | 807.1 | 821 | 833.6 | 0.9649 | 1.025 | 1.085
323.15 K | 801.4 | 814.6 | 827.5 | 0.8601 | 0.9113 | 0.9573
328.15 K | 796.9 | 809.1 | 822.5 | 0.7734 | 0.8123 | 0.8538

CCO [ethanol] + NCCCCCCN
[2], m2 = 0
Details | mass density [kg/m3] | viscosity [mPa·s]
303.15 K | 780.8 | 0.979
308.15 K | 776.5 | 0.8877
313.15 K | 770.3 | 0.8086
318.15 K | 765.2 | 0.7335
323.15 K | 760.3 | 0.6677
328.15 K | 754.5 | 0.6104

CCO [ethanol]
[3]
Details | mass density [kg/m3] | viscosity [mPa·s]
303.15 K | 780.8 | 0.979
308.15 K | 776.5 | 0.8877
313.15 K | 770.3 | 0.8086
318.15 K | 765.2 | 0.7335
323.15 K | 760.3 | 0.6677
328.15 K | 754.5 | 0.6104

NCCCCCCN [1,6-hexanediamine] + CCO
[2]
Details | mass density [kg/m3] | viscosity [mPa·s]
303.15 K, m1 = 0.1293 | 782.3 | 1.011
303.15 K, m1 = 0.2808 | 784.2 | 1.053
303.15 K, m1 = 0.4406 | 786.3 | 1.102
303.15 K, m1 = 0.6113 | 788.6 | 1.162
303.15 K, m1 = 0.7834 | 791.1 | 1.202
303.15 K, m1 = 0.9637 | 793.8 | 1.258
308.15 K, m1 = 0.1293 | 777.9 | 0.9157
308.15 K, m1 = 0.2808 | 779.7 | 0.9505
308.15 K, m1 = 0.4406 | 781.9 | 0.9928
308.15 K, m1 = 0.6113 | 784.7 | 1.046
308.15 K, m1 = 0.7834 | 787.3 | 1.081
308.15 K, m1 = 0.9637 | 790.1 | 1.133
313.15 K, m1 = 0.1293 | 771.6 | 0.8341
313.15 K, m1 = 0.2808 | 773.3 | 0.8606
313.15 K, m1 = 0.4406 | 775.2 | 0.8994
313.15 K, m1 = 0.6113 | 777.2 | 0.9437
313.15 K, m1 = 0.7834 | 779.3 | 0.975
313.15 K, m1 = 0.9637 | 781.5 | 1.019
318.15 K, m1 = 0.1293 | 766.4 | 0.7569
318.15 K, m1 = 0.2808 | 767.9 | 0.7849
318.15 K, m1 = 0.4406 | 769.6 | 0.8154
318.15 K, m1 = 0.6113 | 771.4 | 0.8571
318.15 K, m1 = 0.7834 | 773.3 | 0.8816
318.15 K, m1 = 0.9637 | 775.3 | 0.9201
323.15 K, m1 = 0.1293 | 761.4 | 0.6866
323.15 K, m1 = 0.2808 | 762.8 | 0.7105
323.15 K, m1 = 0.4406 | 764.3 | 0.7356
323.15 K, m1 = 0.6113 | 766 | 0.7761
323.15 K, m1 = 0.7834 | 767.8 | 0.798
323.15 K, m1 = 0.9637 | 769.7 | 0.8301
328.15 K, m1 = 0.1293 | 755.5 | 0.6275
328.15 K, m1 = 0.2808 | 756.8 | 0.6485
328.15 K, m1 = 0.4406 | 758.3 | 0.6737
328.15 K, m1 = 0.6113 | 759.9 | 0.7013
328.15 K, m1 = 0.7834 | 761.6 | 0.7227
328.15 K, m1 = 0.9637 | 763.4 | 0.7564

— the NIST ThermoML archive (doi:10.1021/je800942u)
